These results are taken from patent publication US4540697A, “Aminopropanol derivatives of 2-hydroxy-β-phenyl-propiophenones, pharmaceutical compositions and use” (priority 1984, dated 1985).

In assay [1] the test system is aconitine arrhythmia in rats. Description: Antiarrhythmic action on aconitine arrhythmia in rats. In kind it is in vivo, rat (strain: Sprague Dawley). The settings on record: Rattus norvegicus, po, 1 h, peroral administration, aconitine infused 60 minutes after substance, read-out: ED 50%: dose which causes a 50% extension in the period of aconitine infusion. On the procedure: Moreover, the novel compounds were administered orally or intravenously to male rats (strain: Sprague Dawley, weight: 200-230 g) to determine the antiarrhythmic activity. 45 minutes later, the animals were anesthetized by intraperitoneal administration of 100 mg/kg of thiobutabarbital sodium. Aconitine served as the arrhythmogenic substance, and was infused intravenously at a dosage rate of 0.005 mg/kg/minute 60 minutes after administration of the substance. In untreated animals (n=52), arrhythmias appeared in the ECG after 2.74±0.07 minutes. These arrhythmias can be delayed by antiarrhythmic drugs, as a function of the dose.
The dose which extends the infusion period by 50% (ED 50%) was determined from the linear relationship between the logarithm of the dose (mg/kg) of the trial substance and the relative extension of the period of aconitine infusion (Δ%).
(§1) The known antiarrhythmic drug propafenone [2-(2-hydroxy-3-propylamino-propoxy)-3-phenyl-propiophenone hydrochloride]was used as the comparative substance.

The subject of assay [2] is isolated left atrium of male guineapigs. Description: Antiarrhythmic action on the isolated guineapig atrium (drop in maximum rhythmicity). The settings on record: Cavia porcellus, Tyrode's solution pH 7.4, 32° C., read-out: Maximum rhythmicity (ED 50%): concentration which causes a 50% drop in the maximum rhythmicity. Also noted: species or system guineapig (strain: Pirbright white). As for the experimental part: The antiarrhythmic activity of the compounds according to the invention was determined on the isolated left atrium of male guineapigs (strain: Pirbright white, weight: 350 to 450 g).
Atria suspended in an organ bath (volume: 125 ml) with carbogen-saturated Tyrode's solution (pH 7.4, 32° C.) were pre-loaded with 1.0 g and subjected to square-wave pulses having a base rhythm of 1 Hz and twice the excitation threshold (rheobase: 0.2-1.4 V, chronaxia: 0.3-0.5 msec).
The frequency (Hz) up to which contraction follows each stimulus (maximum rhythmicity, MR) was determined, by automatically and continuously increasing the frequency, as a criterion of the antiarrhythmic activity. The concentration which causes a drop in the maximum rhythmicity of 50% (EC 50%) was calculated from the linear relationship between the logarithm of the concentration (mg/l) and the relative drop in the maximum rhythmicity (%).
as §1

≈ marks a conversion by molar mass, not a printed value. Counter-ions that a name gives are not always drawn.

In the case of `COCC(C)NCC(O)COc1ccccc1C(=O)CCc1ccc(N(C)C)cc1` (stereo not drawn) [Example 60, 2-[2'-Hydroxy-3'-(3-methoxy-prop-2-ylamino)-propoxy]-β-(4-dimethylaminophenyl)-propiophenone hydrochloride], in assay [1], the ED50 came to 3.25 mg/kg. Moreover, in assay [2], the EC50 was determined as 1.82 µg/mL.

With `CN1CCN(CC(O)COc2ccccc2C(=O)CCc2ccccc2)CC1` (stereo not drawn) [Example 25, 2-[2'-Hydroxy-3'-(4-methyl-piperazin-1-yl)-propoxy]-β-phenyl-propiophenone bis-hydrochloride], the ED50 in assay [1] was determined as 11.2 mg/kg. Besides, the EC50 in assay [2] was 1.01 µg/mL.

For `CN(C)c1ccc(CCC(=O)c2ccccc2OCC(O)CN2CCCCC2)cc1` (stereo not drawn) [Example 55, 2-(2'-Hydroxy-3'-piperidino-propoxy)-β-(4-dimethylaminophenyl)-propiophenone], in assay [1], the ED50 came out at 5.7 mg/kg. For the same compound, the EC50 in assay [2] turned out to be 0.854 µg/mL (≈ 2.08 µM).

In the case of `CC(CCO)NCC(O)COc1ccccc1C(=O)CCc1ccccc1` (stereo not drawn) [Example 1, 2-[2'-Hydroxy-3'-(4-hydroxybut-2-ylamino)-propoxy]-β-phenyl-propiophenone hydrochloride], the ED50 in assay [1] is 15 mg/kg. In addition, the EC50 in assay [2] came out at 1.9 µg/mL.

For the compound `CN1CCN(CC(O)COc2ccccc2C(=O)CCc2ccc(N(C)C)cc2)CC1` (stereo not drawn) [Example 67, 2-[2'-Hydroxy-3'-(4-methyl-piperazin-1-yl)-propoxy]-β-(4-dimethylaminophenyl)-propiophenone hydrochloride], the ED50 in assay [1] was 2.15 mg/kg. In addition, the EC50 in assay [2] amounted to 0.658 µg/mL.

`CSCC(C)NCC(O)COc1ccccc1C(=O)CCc1ccccc1` (stereo not drawn) [Example 10, 2-[2'-Hydroxy-3'-(3-thiomethoxyprop-2-ylamino)-propoxy]-β-phenyl-propiophenone hydrochloride]: in assay [1], the ED50 stood at 46.4 mg/kg. For the same compound, the EC50 in assay [2] was found to be 1.13 µg/mL.

As for `O=C(CCc1ccccc1)c1ccccc1OCC(O)CNC1CC1` (stereo not drawn) [Example 3, 2-(2'-Hydroxy-3'-cyclopropylamino-propoxy)-β-phenylpropiophenone hydrochloride], the ED50 in assay [1] is 38.2 mg/kg. In addition, in assay [2], the EC50 was found to be 1.51 µg/mL.

For `CCCNCC(O)COc1ccccc1C(=O)CCc1cc(OC)c(OC)c(OC)c1` (stereo not drawn) [Example 49, 2-(2'-Hydroxy-3'-n-propylaminopropoxy)-β-(3,4,5-trimethoxyphenyl)-propiophenone], in assay [1], the ED50 was found to be 31.6 mg/kg. For the same compound, the EC50 in assay [2] came out at 1.82 µg/mL (≈ 4.22 µM).

Consider `CCCNCC(O)COc1ccccc1C(=O)CCc1ccc(N(C)C)cc1` (stereo not drawn) [Example 35, 2-(2'-Hydroxy-3'-n-propylamino-propoxy)-β-(4-dimethylaminophenyl)-propiophenone hydrochloride], for which, in assay [1], the ED50 was 1.99 mg/kg. For the same compound, in assay [2], the EC50 turned out to be 1.65 µg/mL.

On to `CCCNCC(O)COc1ccccc1C(=O)CCc1ccc(F)cc1` (stereo not drawn) [Example 33, 2-(2'-Hydroxy-3'-n-propylamino-propoxy)-β-(4-fluorophenyl)-propiophenone hydrochloride], for which the ED50 in assay [1] was determined as 24.5 mg/kg. For the same compound, the EC50 in assay [2] was 2.05 µg/mL.

Regarding `CN(C)c1ccc(CCC(=O)c2ccccc2OCC(O)CNC2CC2)cc1` (stereo not drawn) [Example 57, 2-(2'-Hydroxy-3'-cyclopropylamino-propoxy)-β-(4-dimethylaminophenyl)-propiophenone hydrochloride], the ED50 in assay [1] came to 1.78 mg/kg. For the same compound, the EC50 in assay [2] came out at 2.04 µg/mL.

As for `CCCNCC(O)COc1ccccc1C(=O)CCc1ccc(C)cc1` (stereo not drawn) [Example 34, 2-(2'-Hydroxy-3'-n-propylamino-propoxy)-β-(4-methylphenyl)-propiophenone hydrochloride], the ED50 in assay [1] amounted to 21.5 mg/kg. In assay [2], the EC50 was 1.72 µg/mL.

For the compound `O=C(CCc1ccccc1)c1ccccc1OCC(O)CN1CCC(O)(c2ccccc2)CC1` (stereo not drawn) [Example 24, 2-[2'-Hydroxy-3'-(4-hydroxy-4-phenyl-piperidino)-propoxy]-β-phenyl-propiophenone hydrochloride], the ED50 in assay [1] was 25.4 mg/kg. For the same compound, the EC50 in assay [2] was 2.65 µg/mL.

Turning to `O=C(CCc1ccccc1)c1ccccc1OCC(O)CN1CCC(O)CC1` (stereo not drawn) [Example 23, 2-[2'-Hydroxy-3'-(4-hydroxypiperidino)-propoxy]-β-phenyl-propiophenone hydrochloride], in assay [1], the ED50 was 31.6 mg/kg. Further, the EC50 in assay [2] is 1.64 µg/mL.
